Results from ChEMBL document CHEMBL3525940, “The tissue-specific toxicity of methimazole in the mouse olfactory mucosa is partly mediated through target-tissue metabolic activation by CYP2A5” (Drug Metab Dispos, 2011).

Legend:
[1] = tested on: Mus musculus; assay: Toxicity in wild-type littermates mouse olfactory mucosa assessed as epithelium loss measured as intact olfactory epithelium at 50 mg/kg, ip by hematoxylin/eosin staining; assay type: organism-based; design: dose 50 mg/kg, route intraperitoneal; conditions: in vivo
[2] = tested on: Mus musculus; assay: Toxicity in Cyp2a5-null B6 mouse olfactory mucosa assessed as depletion of nonprotein sulfhydryl at 50 mg/kg, ip at 2 hrs relative to vehicle treated control; assay type: organism-based; design: dose 50 mg/kg, route intraperitoneal; conditions: in vivo
[3] = tested on: Mus musculus; assay: Toxicity in wild-type B6 mouse olfactory mucosa assessed as depletion of nonprotein sulfhydryl at 50 mg/kg, ip at 2 hrs relative to vehicle treated control; assay type: organism-based; design: dose 50 mg/kg, route intraperitoneal; conditions: in vivo
[4] = tested on: Mus musculus; assay: Toxicity in wild-type mouse olfactory mucosa assessed as epithelium loss at 50 mg/kg, ip by hematoxylin/eosin staining; assay type: organism-based; design: dose 50 mg/kg, route intraperitoneal; conditions: in vivo
[5] = tested on: Mus musculus; assay: Toxicity in wild-type mouse olfactory mucosa assessed as abnormal nasal cavity and epithelium at 50 mg/kg, ip by hematoxylin/eosin staining; assay type: organism-based; design: dose 50 mg/kg, route intraperitoneal; conditions: in vivo
[6] = tested on: Mus musculus; assay: Toxicity in wild-type mouse olfactory mucosa assessed as detached epithelium from basement membrane, fractured and disorganized at 50 mg/kg, ip by hematoxylin/eosin staining; assay type: organism-based; design: dose 50 mg/kg, route intraperitoneal; conditions: in vivo
[7] = tested on: Mus musculus; assay: Toxicity in Cyp2a5-null B6 mouse olfactory mucosa assessed as attached epithelium from basement membrane at 50 mg/kg, ip by hematoxylin/eosin staining; assay type: organism-based; design: dose 50 mg/kg, route intraperitoneal; conditions: in vivo
[8] = tested on: Mus musculus; assay: Toxicity in Cyp2a5-null B6 mouse olfactory mucosa assessed as abnormal nasal cavity and epithelium at 50 mg/kg, ip by hematoxylin/eosin staining; assay type: organism-based; design: dose 50 mg/kg, route intraperitoneal; conditions: in vivo
[9] = tested on: Mus musculus; assay: Toxicity in Cyp2a5-null B6 mouse olfactory mucosa assessed as epithelium loss measured as intact olfactory epithelium at 50 mg/kg, ip by hematoxylin/eosin staining; assay type: organism-based; design: dose 50 mg/kg, route intraperitoneal; conditions: in vivo
[10] = tested on: Mus musculus; assay: Toxicity in wild-type B6 mouse olfactory mucosa assessed as epithelium loss measured as intact olfactory epithelium at 50 mg/kg, ip by hematoxylin/eosin staining; assay type: organism-based; design: dose 50 mg/kg, route intraperitoneal; conditions: in vivo
[11] = Drug metabolism in wild-type mouse olfactory mucosa microsomes assessed as rate of disappearance of compound at 5 uM after 15 mins; assay type: ADME; conditions: read-out: Drug metabolism
[12] = Drug metabolism in Cyp2a5-null B6 mouse olfactory mucosa microsomes assessed as rate of disappearance of compound at 5 uM after 15 mins; assay type: ADME; conditions: B6 (C57BL/6), read-out: Drug metabolism

Question: For `Cn1cc[nH]c1=S` [METHIMAZOLE], which Activity [1] is on record?
Answer: 39.8%

Question: What about the Activity [2] of the same molecule?
Answer: 41.5%

Question: And the Activity [3]?
Answer: 51.8%

Question: What about the Activity [4] of the same molecule?
Answer: Toxic

Question: What about the Activity [5] of the same molecule?
Answer: Toxic

Question: What about the Activity [6] of the same molecule?
Answer: Toxic

Question: And the Activity [7]?
Answer: Non-toxic

Question: And the Activity [8]?
Answer: Non-toxic

Question: And the Activity [9]?
Answer: 60.9%

Question: And the Activity [10]?
Answer: 14.6%

Question: And the metabolised at 0.25 h, 5 µM [11]?
Answer: 58.7%

Question: What about the metabolised at 0.25 h, 5 µM [12] of the same molecule?
Answer: 28.7%
